The source of these data is US20050090522A1 (priority 2001, published 2005).

pEC50: −log10 of the molar value. Read-outs that look alike come from different tables or passages of the source. A value given as a limit tells only on which side of the number the result lay.

As a reminder, the pEC50 is the negative decadic logarithm of the EC50, by convention in mol/L.

One data set deals with HeLa cells. In words: Cytotoxicity assay in HeLa cells (MTT dye reduction, CC50). The following applies: cytotoxicity; Yes = CC50 above 100 uM, No = not. The method, then: • Virus production—Human embryonic Kidney cell line, 293, propagated in Dulbecco's Modified Eagle Medium (Life Technologies, Gaithersburg, Md.) containing 10% fetal Bovine serum (FBS, Sigma, St. Louis, Mo.). • Virus infection—Human epithelial cell line, HeLa, expressing the HIV-1 receptors CD4 and CCR^5 was propagated in Dulbecco's Modified Eagle Medium (Life Technologies, Gaithersburg, Md.) containing 10% fetal Bovine serum (FBS, Sigma, St. Louis, Mo.) and supplemented with 0.2 mg/mL Geneticin (Life Technologies, Gaithersburg, Md.) and 0.4 mg/mL Zeocin (Invitrogen, Carlsbad, Calif.). […] Transfections were performed using lipofectAMINE PLUS reagent as described by the manufacturer (Life Technologies, Gaithersburg, Md.). Experiment • 1. Compound was added to HeLa CD4 CCR5 cells plated in 96 well plates at a cell density of 5×10^4 cells per well in 100 μl Dulbecco's Modified Eagle Medium containing 10% fetal Bovine serum at a concentration of […]. • 2. 100 μl of single-round infectious reporter virus in Dulbecco's Modified Eagle Medium was then added to the plated cells and compound at an approximate multiplicity of infection (MOI) of 0.01, resulting in a final volume of 200 μl per well and a final compound concentration of <10 μM. • 3. Samples were harvested 72 h after infection. • 4. Viral infection was monitored by measuring luciferase expression from viral DNA in the infected cells using a luciferase reporter gene assay kit (Roche Molecular Biochemicals, Indianapolis, Ind.). Infected cell supernatants were removed and 50 μl of Dulbecco's Modified Eagle Medium (without phenol red) and 50 μl of luciferase assay reagent reconstituted as described by the manufacturer (Roche Molecular Biochemicals, Indianapolis, Ind.) was added per well. Luciferase activity was then quantified by measuring luminescence using a Wallac microbeta scintillation counter. • 5. […] An EC50 provides a method for comparing the antiviral potency of the compounds of this invention. The effective concentration for fifty percent inhibition (EC50) was calculated with the Microsoft Excel Xlfit curve fitting software. For each compound, curves were generated from percent inhibition calculated at 10 different concentrations by using a four paramenter logistic model (model 205). Table 1 is the key for the data in Tables 2-4. Cytoxicity assays were conducted with the same HeLa using methodology well known in the art.
(§1) For accuracy, the determined measure of viral inhibition is an EC50; but the minimum plasma concentrations which should be maintained in a patient is generally believed to be at least four or five fold higher. […] Lower is better. • 4) Estimating potential exposure in man by measuring parameters such as AUC and rate of clearance by oral and iv dosing in rats. High exposure and low clearance was desired.
Background: Formazan colour is commonly taken as a measure of viable cells.

Data set [1] is described as follows: Metabolic stability in pooled human liver microsomes (HLM). The following applies: pooled human liver microsomes, 3 μM drug; Low/Intermediate/High. The method, then: Metabolic Stability Studies of compounds in Liver Microsomes. The metabolic stability of compounds were investigated in pooled liver microsomes from humans. The human liver microsomes were obtained from BD Gentest (Lot #16, Woburn, Mass.) with a protein concentration of 20 mg/ml and a total cytochrome P450 (CYP) concentration of 0.55 nmol/mg protein. A stock solution of drug was prepared in acetonitrile at 1 mM. […] The incubation media consisted of potassium phosphate buffer (0.1 M, pH 7.4), liver microsomes (final concentration 0.9 mg/ml), magnesium chloride (0.033 mM), and a NADPH-regenerating system. […] The test compound was pre-incubated in the media for 2 min. The reaction was initiated by the addition of the cofactors. The incubation was carried out at 37° C. for 10 min. The reaction was terminated by drawing an aliquot of 100 μL from the incubation and adding into 200 μL of acetonitrile containing a reference compound as an […] analytical standard. Following vortex-mixing and centrifugation, an aliquot of 10 μL of the supernatant was analyzed by LC/MS.
GUIDELINES can be used to categorized test substances as low, intermediate or highly cleared compounds.
as §1
The stability of compounds were also evaluated to determine metabolic stability when incubated in in vitro preparations of human liver microsomes (HLM). This is one commonly used predictive system for evaluating the potential for human metabolism and projecting clearance rates in man. Compounds with low clearance rates were most desireable.
A general note: Microsomes from liver hold many membrane-bound enzymes, among them those of drug oxidation.

In a further data set the test system is HIV-1. Briefly: HIV-1 single-round infectious luciferase reporter virus (pseudotype) assay in HeLa CD4 CCR5 cells. It counts as cell-based. In short, it runs like this:
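HeLa CD4 CCR5 cells (5×10^4/well, DMEM + 10% FBS) were treated with compound (final <10 μM) and infected with single-round luciferase reporter virus made in 293 cells, at MOI ~0.01. Luciferase was read 72 h post infection. EC50 came from 10-concentration percent-inhibition curves fitted to a four-parameter logistic model.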
(In general: Reporter assays use an easily measured gene product as a stand-in for the process of interest.)

Setting [2] is: Human immunodeficiency virus 1, HeLa-CD4/CCR5, read-out: EC50 category, HIV-1 single-round reporter virus assay, category 1/2/3 per Table A1 key.
The mark [3] stands for this setting: Human immunodeficiency virus 1, HeLa-CD4/CCR5, read-out: EC50 Group from TABLE 1, HeLa CD4 CCR5 cells, single-round infectious luciferase reporter virus.
Setting [4] is: Human immunodeficiency virus 1, HeLa-CD4/CCR5, read-out: EC50 Group from Table 1, Table 2-1, HeLa CD4 CCR5 cells, single-round luciferase reporter virus.

On to `O=C(C(=O)N1CCN(C(=O)c2ccccc2)CC1)c1c[nH]c2c(-n3cncn3)ccnc12` [Example 207, 1-(4-benzoyl-piperazin-1-yl)-2-(7-[1,2,4]triazol-1-yl-1H-pyrrolo[3,2-b]pyridin-3-yl)-ethane-1,2-dione], for which the “CC50 > 100 uM” value with HeLa cells is on record as “Yes”. The “HLM predicted human clearance class” value in data set [1] is given as “Low (0-0.100)”. The negative logarithm of the EC50 (pEC50) with HIV-1 (Human immunodeficiency virus 1, HeLa-CD4/CCR5, read-out: EC50 Group from Table 1, Table 4, HeLa CD4 CCR5 cells, single-round luciferase reporter virus) is greater than 6.00; with HIV-1 (setting [2]), 6.00 to 9.70.

As for `COc1cnc(-c2ccco2)c2[nH]cc(C(=O)C(=O)N3CCN(C(=O)c4ccccc4)CC3)c12` [Example 73, 1-(benzoyl)-4-[(4-methoxy-7-(furan-2-yl)-6-azaindol-3-yl)-oxoacetyl]piperazine], the “CC50 > 100 uM” value with HeLa cells is reported as “Yes”. The “HLM predicted human clearance class” value in data set [1] is “Intermediate (0.101-0.200)”. For the same molecule, the pEC50 in the data set with HIV-1 (setting [3]) was greater than 6.00; in the data set on HIV-1 (setting [2]), greater than 9.70.

Turning to `O=C(C(=O)N1CCN(C(=O)c2ccccc2)CC1)c1c[nH]c2c(-c3cncnc3)ncc(F)c12` [Example 42, 1-benzoyl-4-[(4-fluoro-7-(pydin-5-yl)-6-azaindol-3-yl)-oxoacetyl]piperazine], the “CC50 > 100 uM” value with HeLa cells was “Yes”. The “HLM predicted human clearance class” value in data set [1] is “Low (0-0.100)”. Also, the pEC50 is greater than 6.00 in the data set on HIV-1 (setting [3]) and 6.00 to 9.70 with HIV-1 (setting [2]).

Take `Nc1ncn(-c2ncc(F)c3c(C(=O)C(=O)N4CCN(C(=O)c5ccccc5)CC4)c[nH]c23)n1` [Example 313]: the “CC50 > 100 uM” value in the data set on HeLa cells is recorded as “Yes”. The “HLM predicted human clearance class” value in data set [1] is recorded as “Low (0-0.100)”. In addition, the pEC50 in the data set with HIV-1 (setting [3]) was greater than 6.00; with HIV-1 (setting [2]) it was greater than 9.70.

As for `COc1cnc(-n2cnc(C(=O)N(C)C)n2)c2[nH]cc(C(=O)C(=O)N3CCN(C(=O)c4ccccc4)CC3)c12` [Example 275, 1-benzoyl-4-[(4-methoxy-7-(3-dimethylaminocarbonyl-1,2,4-triazol-1-yl)-6-azaindol-3-yl)-oxoacetyl]piperazine], the “CC50 > 100 uM” value with HeLa cells is given as “Yes”. In addition, the “HLM predicted human clearance class” value in data set [1] is recorded as “Low (0-0.100)”. The pEC50 in the data set with HIV-1 (setting [3]) was greater than 6.00; in the data set on HIV-1 (setting [2]) it was greater than 9.70.

For the molecule `O=C(C(=O)N1CCN(C(=O)c2ccccc2)CC1)c1c[nH]c2c(N3CCOCC3)ncc(F)c12` [Example 222], the “CC50 > 100 uM” value in the data set with HeLa cells is listed as “Yes”. The “HLM predicted human clearance class” value in data set [1] is on record as “Low (0-0.100)”. Further, the pEC50 with HIV-1 (setting [3]) is greater than 6.00; in the data set with HIV-1 (setting [2]), 6.00 to 9.70.

Take `COc1cnc(-c2nccs2)c2[nH]cc(C(=O)C(=O)N3CCN(C(=O)c4ccccc4)CC3)c12` [Example 35, 1-(benzoyl)-4-[(4-methoxy-7-(thiazol-2-yl)-6-azaindol-3-yl)-oxoacetyl]piperazine]: the “CC50 > 100 uM” value in the data set with HeLa cells is listed as “Yes”. Moreover, the “HLM predicted human clearance class” value in data set [1] is “Intermediate (0.101-0.200)”. Further, the pEC50 in the data set on HIV-1 (setting [3]) is greater than 6.00; in the data set on HIV-1 (setting [2]) it was greater than 9.70.

For the molecule `COc1cnc(-c2cnc(NC(C)=O)s2)c2[nH]cc(C(=O)C(=O)N3CCN(C(=O)c4ccccc4)CC3)c12` [Example 78, 1-benzoyl-4-[(4-methoxy-7-(2-acetylamino-thiazol-5-yl)-6-azaindol-3-yl)-oxoacetyl]piperazine], the “CC50 > 100 uM” value in the data set with HeLa cells is given as “Yes”. In data set [1], the “HLM predicted human clearance class” value is listed as “Intermediate (0.101-0.200)”. In addition, the pEC50 in the data set on HIV-1 (setting [3]) is greater than 6.00; in the data set on HIV-1 (setting [2]), 6.00 to 9.70.

With `O=C(C(=O)N1CCN(C(=O)c2ccccc2)CC1)c1c[nH]c2c(N3CCCC3)ncc(F)c12` [Example 221], the “CC50 > 100 uM” value with HeLa cells was “Yes”. The “HLM predicted human clearance class” value in data set [1] is reported as “Low (0-0.100)”. Also, the pEC50 in the data set on HIV-1 (setting [3]) is greater than 6.00; in the data set on HIV-1 (setting [2]), 6.00 to 9.70.

`CCc1ccn(-c2ncc(OC)c3c(C(=O)C(=O)N4CCN(C(=O)c5ccccc5)[C@H](C)C4)c[nH]c23)n1` [Example 230, (R)-1-benzoyl-2-methyl-4-[(4-methoxy-7-(3-ethyl-pyrazol-1-yl)-6-azaindol-3-yl)-oxoacetyl]piperazine]: the “CC50 > 100 uM” value in the data set with HeLa cells is given as “Yes”. In addition, the “HLM predicted human clearance class” value in data set [1] is “Intermediate (0.101-0.200)”. Also, the negative logarithm of the EC50 (pEC50) in the data set with HIV-1 (setting [4]) was greater than 6.00; with HIV-1 (setting [2]), greater than 9.70.

In the case of `COc1cnc(-c2cncs2)c2[nH]cc(C(=O)C(=O)N3CCN(C(=O)c4ccccc4)CC3)c12` [Example 71, 1-benzoyl-4-[(4-methoxy-7-(thioazol-5-yl)-6-azaindol-3-yl)-oxoacetyl]piperazine], in the data set on HeLa cells, the “CC50 > 100 uM” value is “Yes”. In addition, in data set [1], the “HLM predicted human clearance class” value is “Intermediate (0.101-0.200)”. The figures for the pEC50 in the data set with HIV-1 (setting [3]) and in the data set with HIV-1 (setting [2]) were greater than 6.00 and greater than 9.70, respectively.

Regarding `O=C(C(=O)N1CCN(C(=O)c2ccccc2)CC1)c1c[nH]c2c(-c3c[nH]nn3)ncc(F)c12` [Example 299], in the data set on HeLa cells, the “CC50 > 100 uM” value was “No”. Further, the “HLM predicted human clearance class” value in data set [1] was “Low (0-0.100)”. Also, the negative logarithm of the EC50 (pEC50) was greater than 6.00 in the data set with HIV-1 (setting [3]) and greater than 9.70 in the data set on HIV-1 (setting [2]).

On to `CCNC(=O)c1ncn(-c2ncc(OC)c3c(C(=O)C(=O)N4CCN(C(=O)c5ccccc5)CC4)c[nH]c23)n1` [Example 273, 1-benzoyl-4-[(4-methoxy-7-(3-ethylaminocarbonyl-1,2,4-triazol-1-yl)-6-azaindol-3-yl)-oxoacetyl]piperazine], for which the “CC50 > 100 uM” value with HeLa cells is listed as “Yes”. Further, the “HLM predicted human clearance class” value in data set [1] is “Low (0-0.100)”. In addition, the pEC50 is greater than 6.00 in the data set with HIV-1 (setting [3]) and greater than 9.70 in the data set on HIV-1 (setting [2]).

With `COc1cnc(-n2ccc(N)n2)c2[nH]cc(C(=O)C(=O)N3CCN(C(=O)c4ccccc4)CC3)c12` [Example 251, 1-benzoyl-4-[(4-methoxy-7-(3-amino-pyrazol-1-yl)-6-azaindol-3-yl)-oxoacetyl]piperazine], in the data set on HeLa cells, the “CC50 > 100 uM” value is reported as “Yes”. Moreover, in data set [1], the “HLM predicted human clearance class” value is “Low (0-0.100)”. Also, the figures for the pEC50 with HIV-1 (setting [3]) and in the data set with HIV-1 (setting [2]) were greater than 6.00 and greater than 9.70, respectively.

Turning to `Cc1ncn(-c2ncc(F)c3c(C(=O)C(=O)N4CCN(C(=O)c5ccccc5)[C@H](C)C4)c[nH]c23)n1` [Example 315], the “CC50 > 100 uM” value in the data set with HeLa cells was “Yes”. In data set [1], the “HLM predicted human clearance class” value is on record as “Low (0-0.100)”. Besides, the pEC50 with HIV-1 (setting [4]) was greater than 6.00; in the data set with HIV-1 (setting [2]) it was greater than 9.70.

In the case of `Cc1ccnn1-c1ncc(F)c2c(C(=O)C(=O)N3CCN(C(=O)c4ccccc4)CC3)c[nH]c12` [Example 312], in the data set with HeLa cells, the “CC50 > 100 uM” value is on record as “Yes”. Further, the “HLM predicted human clearance class” value in data set [1] is reported as “Low (0-0.100)”. Besides, the negative-log EC50 (pEC50) was greater than 6.00 in the data set on HIV-1 (setting [3]) and 6.00 to 9.70 in the data set on HIV-1 (setting [2]).
